In US6600072B2, “Substituted 1-naphthoylguanidines, process for their preparation, their use as a medicament or diagnostic , and medicament containing them” (Aventis Pharma Deutschland GmbH, priority 1996, dated 2003):
Structures can show the parent of a compound that is named as a salt.

Assays:
[1] = target: T1, Na^+/H^+ exchanger of rabbit erythrocytes (Oryctolagus cuniculus, UniProt P23791); assay: Inhibition of the Na+/H+ exchanger of rabbit erythrocytes (amiloride-sensitive sodium influx, flame photometry); assay type: cell-based; conditions: pH 7.4, 37° C., hyperosmolar salt-sucrose medium
T1 construct: determine the Na^+ influx into the erythrocytes via Na^+/H^+ exchange by flame photometry; endogenous in cells; host or cells: erythrocytes in whole blood of cholesterol-fed White New Zealand rabbits
Source text: Inhibition of the Na^+/H^+ exchanger of rabbit erythrocytes:
White New Zealand rabbits (Ivanovas) received a standard diet containing 2% cholesterol for six weeks in order to activate Na^+/H^+ exchange and thus to be able to determine the Na^+ influx into the erythrocytes via Na^+/H^+ exchange by flame photometry. The blood was taken from the auricular arteries and rendered uncoagulable by means of 25 lU/ml of potassium heparin. A part of each sample was used for the duplicate determination of the hematocrit by centrifugation. Aliquots of 100 μl in each case were used to measure the Na^+ starting content of the erythrocytes.
In order to determine the amiloride-sensitive sodium influx, 100 μl of each blood sample were incubated at pH 7.4 and 37° C. in 5 ml in each case of a hyperosmolar salt-sucrose medium (mmol/l: 140 NaCl, 3 KCl, 150 sucrose, 0.1 ouabain, 20 trishydroxymethylaminomethane). The erythrocytes were then washed three times with ice-cold MgCl2-ouabain solution (mmol/l: 112 MgCl2, 0.1 ouabain) and hemolyzed in 2.0 ml of distilled water. The intracellular sodium content was determined by flame photometry.
The net Na^+ influx was calculated from the difference between sodium starting values and the sodium content of the erythrocytes after incubation. The amiloride-inhibitable sodium influx ensued from the difference in the sodium content of the erythrocytes after incubation with and without amiloride 3×10^−4 mol/l. The sodium influx was also determined in this manner in the case of the compounds according to the invention.

rat hearts = conditions: isolated rat hearts; cited from earlier work

T1 sequence (P23791 whole entry): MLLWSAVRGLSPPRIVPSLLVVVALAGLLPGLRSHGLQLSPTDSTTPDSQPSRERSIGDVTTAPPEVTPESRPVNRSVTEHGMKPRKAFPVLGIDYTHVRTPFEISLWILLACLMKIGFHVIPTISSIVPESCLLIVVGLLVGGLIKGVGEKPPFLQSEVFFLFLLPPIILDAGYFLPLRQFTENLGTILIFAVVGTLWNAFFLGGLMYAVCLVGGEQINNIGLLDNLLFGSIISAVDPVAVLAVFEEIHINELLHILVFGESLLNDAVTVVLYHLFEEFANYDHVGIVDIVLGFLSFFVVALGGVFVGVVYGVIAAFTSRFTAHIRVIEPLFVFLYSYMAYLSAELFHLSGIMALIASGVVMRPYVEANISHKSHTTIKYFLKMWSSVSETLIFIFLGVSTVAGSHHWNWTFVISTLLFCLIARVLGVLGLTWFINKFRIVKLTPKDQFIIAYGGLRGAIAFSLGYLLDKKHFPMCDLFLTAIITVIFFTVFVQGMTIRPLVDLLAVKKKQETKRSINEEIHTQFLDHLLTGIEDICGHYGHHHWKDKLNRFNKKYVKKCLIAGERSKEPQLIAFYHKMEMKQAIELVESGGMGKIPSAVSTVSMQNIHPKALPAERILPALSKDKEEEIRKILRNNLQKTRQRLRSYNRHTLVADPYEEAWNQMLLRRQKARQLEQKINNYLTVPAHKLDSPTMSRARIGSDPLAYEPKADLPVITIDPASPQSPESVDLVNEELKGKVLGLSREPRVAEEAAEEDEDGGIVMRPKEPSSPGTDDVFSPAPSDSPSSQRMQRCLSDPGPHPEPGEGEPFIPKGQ

SMILES: NC(N)=NC(=O)c1ccc(C(=O)N=C(N)N)c2ccccc12 [Example 23, Naphthaline-1,4-dicarboxylic Acid Diguanidide]
- melting point: 270 °C (dec.)

SMILES: N=C(N)NC(=O)c1cccc2ccccc12 [Example 6, 1-Naphthoylguanidine Hydrochloride]
- IC50 [1]: 10 µM

SMILES: CC(C)Oc1ccc2ccccc2c1C(=O)NC(=N)N [Example 18, 2-Isopropyloxy-1-naphthoylguanidine Hydrochloride]
- IC50 [1]: 2 µM

SMILES: COc1ccc2ccccc2c1C(=O)NC(=N)N [Example 8, 2-Methoxy-1-naphthoylguanidine Hydrochloride]
- IC50 [1]: 0.5 µM

SMILES: CCCCOc1ccc2ccccc2c1C(=O)NC(=N)N [Example 14, 2-Butyloxy-1-naphthoylguanidine Hydrochloride]
- IC50 [1]: 1 µM

SMILES: NC(N)=NC(=O)c1c(OCc2ccc(CN3CCCCC3)cc2)ccc2ccccc12 [Example 10, 2-[4-(1-Piperidinomethyl)benzyloxy]-1-naphthoylguanidine]
- melting point: 205 to 210 °C

SMILES: COc1ccc2c(C(=O)N=C(N)N)cccc2c1 (as salt: hydrochloride) [Example 4, 6-Methoxy-1-naphthoylguanidine Hydrochloride]
- melting point: 235 to 236 °C

SMILES: N=C(N)NC(=O)c1nc(Cl)c(N)nc1N [amiloride, Amiloride]
- suppression of artificially induced ventricular fibrillation (rat hearts): suppressed completely

SMILES: CCN(c1nc(N)c(C(=O)NC(=N)N)nc1Cl)C(C)C [ethylisopropylamiloride, Ethylisopropylamiloride]
- potency relative to amiloride in the ventricular fibrillation model (rat hearts): even more potent than amiloride

SMILES: NC(N)=NC(=O)c1c(OCc2ccc(Br)cc2)ccc2ccccc12 (as salt: hydrochloride) (hydrate or solvate) [Example 9, 2-(4-Bromobenzyloxy)naphthoylguanidine Hydrochloride Hemihydrate]
- melting point: 198 to 202 °C

SMILES: COc1ccc2c(C(=O)N=C(N)N)cccc2c1C(F)(F)F (as salt: hydrochloride) [Example 3, 6-Methoxy-5-trifluoromethyl-1-naphthoyl-guanidine Hydrochloride]
- melting point: > 260 °C

SMILES: Cl.NC(N)=NC(=O)c1ccc(F)c2ccccc12 [Example 1, 4-Fluoro-1-naphthoylguanidine Hydrochloride]
- IC50 [1]: 1 to 2 µM
- melting point: 245 °C
